Reference: patent US8853146B2, “Hapten compounds and compositions and uses thereof” (The Board of Trustees of the University of Arkansas, priority 2007, dated 2014)

Columns and labels:
Design in all cases: species or system mouse
Conditions in all cases: RIA IC50 value for METH/RIA IC50 value for test ligand
mAb4G9 = experiment: RIA cross-reactivity profile, inhibition of [3H]-(+)METH binding to mAb4G9
Procedure: (§1) KD values for mAb were determined by the method of Akera and Cheng (1977, Biochim Biophys Acta 470:412-423).

mAb6H4 = experiment: RIA cross-reactivity profile, inhibition of [3H]-(+)METH binding to mAb6H4
Procedure: as §1

mAb6H8 = experiment: RIA cross-reactivity profile, inhibition of [3H]-(+)METH binding to mAb6H8
Procedure: as §1

Molecule	Antibody Specificity (Relative Potency to METH), mAb4G9 (mAb4G9)	Antibody Specificity (Relative Potency to METH), mAb6H4 (mAb6H4)	Antibody Specificity (Relative Potency to METH), mAb6H8 (mAb6H8)
CC(N)Cc1ccccc1 (single isomer, unassigned; (+)) [(+)AMP, (+)-amphetamine]	0.34	0.001	0.023
CC(N)Cc1ccc2c(c1)OCO2 (single isomer, unassigned; (+)) [(+)MDA]	0.090	0.001	0.024
CNC(C)Cc1ccc2c(c1)OCO2 (single isomer, unassigned; (+)) [(+)MDMA, (+)-3,4-methylenedioxymethamphetamine]	0.29	1.25	3.40
CC(N)C(O)c1ccccc1 (single isomer, unassigned; (+)) [(+)phenylpropanolamine]	<0.001	<0.001	<0.001
CC(N)Cc1ccccc1 (single isomer, unassigned; (-)) [(−)AMP, (−)amphetamine]	0.063	<0.001	0.003
CC(N)Cc1ccc2c(c1)OCO2 (single isomer, unassigned; (-)) [(−)MDA]	0.002	<0.001	<0.001
CNC(C)Cc1ccc2c(c1)OCO2 (single isomer, unassigned; (-)) [(−)MDMA]	0.011	0.007	0.018
CNC(C)Cc1ccc(O)cc1 (stereo not drawn) [4-OH-METH]	0.106	0.588	0.294
CN[C@H](C)[C@@H](O)c1ccccc1 [(+)ephedrine]	<0.001	<0.001	<0.001
NCCc1ccc(O)c(O)c1 [dopamine]	<0.001	<0.001	<0.001
CNC[C@H](O)c1ccc(O)c(O)c1 [epinephrine]	<0.001	<0.001	<0.001
CNC[C@H](O)c1cccc(O)c1 [l-phenylphrine]	<0.001	0.001	<0.001
NC[C@H](O)c1ccc(O)c(O)c1 [norepinepherine]	<0.001	<0.001	<0.001
NCCc1c[nH]c2ccc(O)cc12 [serotonin]	<0.001	<0.001	<0.001
NCCc1ccc(O)cc1 [tyramine]	<0.001	<0.001	<0.001
NCCc1ccccc1 [β-phenylethylamine]	0.001	<0.001	<0.001
(+)norpseudoephedrine	<0.001	<0.001	<0.001
(+)pseudoephedrine	0.004	<0.001	0.018
(−)-methamphetamine [(−)METH]	0.102	0.030	0.011
